Like-named read-outs stand apart in the source and are kept apart here.
Biological target: T1, human α7 nicotinic acetylcholine receptor (HEK cell line stably expressing human RIC-3 and human α7) (Homo sapiens, UniProt P36544)
T1 construct: host or cells: HEK cell line (PrecisION hnAChR α7/RIC-3)
Assay: Automated patch-clamp electrophysiology functional assay (Assay A), IonFlux HT, whole-cell population patch
Format: cell-based

[1] = HEK cells expressing human α7/RIC-3, test compound with or without 40 μM acetylcholine, holding potential −60 mV, room temperature, read-out: α7 nAChR Potency
[2] = automated patch-clamp electrophysiology functional assay (Assay A), read-out: α7 nAChR EC50
[3] = α7 nAChR EC50 (nM), automated patch-clamp electrophysiology functional assay (Assay A)
[4] = α7 nAChR Potency, HEK cells expressing human α7/RIC-3, test compound with or without 40 μM acetylcholine, holding potential −60 mV, room temperature

T1 sequence (P36544 23-502): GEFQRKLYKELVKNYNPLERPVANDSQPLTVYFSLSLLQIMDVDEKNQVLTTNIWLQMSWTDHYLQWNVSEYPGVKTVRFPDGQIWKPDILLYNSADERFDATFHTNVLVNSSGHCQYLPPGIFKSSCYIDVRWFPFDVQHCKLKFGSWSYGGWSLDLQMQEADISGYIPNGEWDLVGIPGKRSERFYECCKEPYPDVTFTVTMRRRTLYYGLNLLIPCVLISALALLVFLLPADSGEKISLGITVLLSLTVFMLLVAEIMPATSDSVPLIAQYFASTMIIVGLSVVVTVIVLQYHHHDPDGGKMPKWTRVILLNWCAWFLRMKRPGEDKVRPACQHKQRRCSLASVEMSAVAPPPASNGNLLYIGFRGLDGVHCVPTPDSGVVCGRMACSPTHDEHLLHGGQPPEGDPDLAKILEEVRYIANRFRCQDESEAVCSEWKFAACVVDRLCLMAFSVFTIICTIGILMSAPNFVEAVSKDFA

Row | Structure (SMILES) | EC50 [1] | EC50 [2] | EC50 [3] | EC50 [4]
1 | NS(=O)(=O)N1CCC2(CC1)C[C@H]2c1noc(-c2cnccc2C(F)(F)F)n1 [Example E57] | 500 to 5000 nM | – | – | –
2 | NS(=O)(=O)N1CCC2(CC1)C[C@H]2c1noc(-c2cccnc2C(F)(F)F)n1 [Example E58] | 500 to 5000 nM | 3400 nM | – | –
3 | NS(=O)(=O)N1CCC2(CC1)C[C@H]2c1noc(-c2cccnc2OCC(F)(F)F)n1 [Example E59] | 100 to 500 nM | 220 nM | – | –
4 | NS(=O)(=O)N1CCC2(CC1)C[C@H]2c1noc(-c2cncc(OCC(F)(F)F)c2)n1 [Example E60] | 500 to 5000 nM | 2300 nM | – | –
5 | Cc1ncc(C(F)(F)F)cc1-c1nc([C@@H]2CC23CCN(S(N)(=O)=O)CC3)no1 [Example E61] | 500 to 5000 nM | 1500 nM | – | –
6 | CC(C)n1nccc1-c1nc([C@@H]2CC23CCN(S(N)(=O)=O)CC3)no1 [Example E62] | 500 to 5000 nM | 1500 nM | – | –
7 | NS(=O)(=O)N1CCC2(CC1)C[C@H]2c1noc(-c2ccc(OCC(F)(F)F)nc2)n1 [Example E63] | 500 to 5000 nM | – | – | –
8 | Cc1cnn(C2CC2)c1-c1nc([C@@H]2CC23CCN(S(N)(=O)=O)CC3)no1 [Example E64] | 500 to 5000 nM | 520 nM | – | –
9 | Cn1nc2c(c1-c1nc([C@@H]3CC34CCN(S(N)(=O)=O)CC4)no1)CCCC2 [Example E65] | 100 to 500 nM | 420 nM | – | –
10 | Cn1nc2c(c1-c1nc([C@@H]3C(F)(F)C34CCN(S(N)(=O)=O)CC4)no1)CCCC2 [Example E66] | 100 to 500 nM | 120 nM | – | –
11 | NS(=O)(=O)N1CCC2(CC1)[C@H](c1noc(-c3ccccn3)n1)C2(F)F [Example E67] | 500 to 5000 nM | 2100 nM | – | –
12 | NS(=O)(=O)N1CCC2(CC1)[C@H](c1noc(-c3conc3C(F)(F)F)n1)C2(F)F [Example E68] | 500 to 5000 nM | 680 nM | – | –
13 | NS(=O)(=O)N1CCC2(CC1)C[C@H]2c1noc(-c2cccc3c2CCC3)n1 [Example E69] | < 100 nM | – | – | –
14 | NS(=O)(=O)N1CCC2(CC1)C[C@H]2c1noc(-c2cccc(-n3nccc3C(F)(F)F)c2)n1 [Example E70] | 500 to 5000 nM | 2300 nM | – | –
15 | NS(=O)(=O)N1CCC2(CC1)C[C@H]2c1noc(-c2ccccc2Oc2ccccc2)n1 [Example E71] | 100 to 500 nM | 360 nM | – | –
16 | NS(=O)(=O)N1CCC2(CC1)C[C@H]2c1noc(-c2ccc3c(c2)CCCC3)n1 [Example E72] | 100 to 500 nM | 110 nM | – | –
17 | NS(=O)(=O)N1CCC2(CC1)C[C@H]2c1noc(-c2ccccc2-n2cccc2)n1 [Example E73] | 500 to 5000 nM | 640 nM | – | –
18 | NS(=O)(=O)N1CCC2(CC1)C[C@H]2c1noc(-c2cccc(-c3ccc(F)cc3)c2)n1 [Example E74] | 100 to 500 nM | – | – | –

Row | Structure (SMILES) | EC50 [1] | EC50 [2] | EC50 [3] | EC50 [4]
19 | N#CC1(c2ccccc2-c2nc([C@@H]3CC34CCN(S(N)(=O)=O)CC4)no2)CC1 [Example E75] | 5000 to 50000 nM | 6300 nM | – | –
20 | NS(=O)(=O)N1CCC2(CC1)C[C@H]2c1noc(-c2ccccc2-c2ncccn2)n1 [Example E76] | 500 to 5000 nM | 3200 nM | – | –
21 | NS(=O)(=O)N1CCC2(CC1)C[C@H]2c1noc(-c2ccccc2-n2cccn2)n1 [Example E77] | 500 to 5000 nM | 850 nM | – | –
22 | NS(=O)(=O)N1CCC2(CC1)C[C@H]2c1noc(-c2ncccc2OCC(F)(F)F)n1 [Example E78] | 500 to 5000 nM | 1200 nM | – | –
23 | NS(=O)(=O)N1CCC2(CC1)C[C@H]2c1nnc(-c2ccc(F)cc2C(F)(F)F)o1 [Example F1] | 500 to 5000 nM | 1500 nM | – | –
24 | NS(=O)(=O)N1CCC2(CC1)C[C@H]2c1nnc(-c2cccc(C(F)(F)F)c2)o1 [Example F2] | 500 to 5000 nM | – | – | –
25 | NS(=O)(=O)N1CCC2(CC1)C[C@H]2c1nnc(-c2cccc(OC(F)(F)F)c2)o1 [Example F3] | 500 to 5000 nM | 700 nM | – | –
26 | NS(=O)(=O)N1CCC2(CC1)C[C@H]2c1nnc(-c2cc(F)ccc2F)s1 [Example F4] | 500 to 5000 nM | 1100 nM | – | –
27 | Cc1ccc(F)cc1-c1nnc([C@@H]2CC23CCN(S(N)(=O)=O)CC3)o1 [Example F5] | 100 to 500 nM | 420 nM | – | –
28 | NS(=O)(=O)N1CCC2(CC1)C[C@H]2c1nnc(-c2ccccc2OCC(F)(F)F)o1 [Example F6] | 500 to 5000 nM | 590 nM | – | –
29 | NS(=O)(=O)N1CCC2(CC1)C[C@H]2c1nnc(-c2ccccc2OCC(F)(F)F)s1 [Example F7] | 100 to 500 nM | 480 nM | – | –
30 | Cc1ccccc1-c1nnc([C@@H]2CC23CCN(S(N)(=O)=O)CC3)s1 [Example F8] | 500 to 5000 nM | 750 nM | – | –
31 | NS(=O)(=O)N1CCC2(CC1)C[C@H]2c1nnc(-c2ccc(F)cc2C(F)(F)F)s1 [Example F9] | 500 to 5000 nM | 750 nM | – | –
32 | NS(=O)(=O)N1CCC2(CC1)C[C@H]2c1nnc(-c2cccc(OC(F)F)c2)s1 [Example F10] | – | – | 450 nM | 100 to 500 nM
33 | Cc1onc(C2CC2)c1-c1nnc([C@@H]2CC23CCN(S(N)(=O)=O)CC3)o1 [Example F11] | – | – | 410 nM | 100 to 500 nM
34 | Cc1onc(C2CC2)c1-c1nnc([C@@H]2CC23CCN(S(N)(=O)=O)CC3)s1 [Example F12] | 500 to 5000 nM | 850 nM | – | –
35 | Cc1ccccc1-c1nnc([C@@H]2C(F)(F)C23CCN(S(N)(=O)=O)CC3)o1 [Example F13] | 100 to 500 nM | 400 nM | – | –
36 | Cc1ccccc1-c1nnc([C@@H]2C(F)(F)C23CCN(S(N)(=O)=O)CC3)s1 [Example F14] | 100 to 500 nM | 290 nM | – | –

Continued, in another order:

Row | EC50 [1] | EC50 [2] | Structure (SMILES) | EC50 [3] | EC50 [4]
37 | 500 to 5000 nM | 4000 nM | NS(=O)(=O)N1CCC2(CC1)C[C@H]2c1nc(-c2ccccc2)co1 [Example G1] | – | –
38 | 500 to 5000 nM | 910 nM | NS(=O)(=O)N1CCC2(CC1)C[C@H]2c1csc(-c2conc2C2CC2)n1 [Example G2] | – | –
39 | 500 to 5000 nM | – | Cc1noc(C)c1-n1cc([C@@H]2CC23CCN(S(N)(=O)=O)CC3)cn1 [Example G3] | – | –
40 | 100 to 500 nM | 110 nM | NS(=O)(=O)N1CCC2(CC1)[C@H](c1csc(-c3conc3C3CC3)n1)C2(F)F [Example G4] | – | –
41 | < 100 nM | 91 nM | NS(=O)(=O)N1CCC2(CC1)[C@H](c1ncc(-c3ccc(F)cc3C(F)(F)F)o1)C2(F)F [Example G5] | – | –
42 | < 100 nM | 86 nM | NS(=O)(=O)N1CCC2(CC1)[C@H](c1cc(-c3ccnc(OC(F)F)c3)no1)C2(F)F [Example G6] | – | –
43 | 500 to 5000 nM | 1600 nM | Cn1cc(-c2conc2C2CC2)nc1[C@@H]1C(F)(F)C12CCN(S(N)(=O)=O)CC2 [Example G7] | – | –
44 | < 100 nM | 16 nM | NS(=O)(=O)N1CCC2(CC1)[C@H](c1cc(-c3conc3C3CC3)no1)C2(F)F [Example G8] | – | –
45 | < 100 nM | 78 nM | NS(=O)(=O)N1CCC2(CC1)[C@H](c1cc(-c3ccc(F)cc3C(F)(F)F)on1)C2(F)F [Example G9] | – | –
46 | < 100 nM | 28 nM | NS(=O)(=O)N1CCC2(CC1)[C@H](c1nc(-c3ccc(F)cc3C(F)(F)F)co1)C2(F)F [Example G10] | – | –
47 | 100 to 500 nM | 120 nM | NS(=O)(=O)N1CCC2(CC1)[C@H](c1cc(-c3ccc(F)cc3C(F)(F)F)ns1)C2(F)F [Example G11] | – | –
48 | 5000 to 50000 nM | – | COc1ccc(Cl)cc1-c1noc([C@H]2CC23CCN(S(N)(=O)=O)CC3)n1 [Example H1] | – | –
49 | 500 to 5000 nM | 2900 nM | NS(=O)(=O)N1CCC2(CC1)[C@@H](c1nc(-c3ccc(F)cc3C(F)(F)F)no1)C2(F)F [Example H2] | – | –
